According to PMC5786444, “Structural Basis for the Substrate Inhibition of Proline Utilization A by Proline” (Molecules : A Journal of Synthetic Chemistry and Natural …, 2017):

Tests used:
[1] = target: T1, Proline utilization A (BjPutA) (Bradyrhizobium diazoefficiens, UniProt Q89E26, C792A); test: X-ray crystal structure, […] Å, crystals soaked in […] L-proline; assay type: binding
T1 construct: gene putA; BjPutA C792A; 1949 of 2002 expected residues modeled in the asymmetric unit (dimer)
T1 sequence (Q89E26 1-999 C792A): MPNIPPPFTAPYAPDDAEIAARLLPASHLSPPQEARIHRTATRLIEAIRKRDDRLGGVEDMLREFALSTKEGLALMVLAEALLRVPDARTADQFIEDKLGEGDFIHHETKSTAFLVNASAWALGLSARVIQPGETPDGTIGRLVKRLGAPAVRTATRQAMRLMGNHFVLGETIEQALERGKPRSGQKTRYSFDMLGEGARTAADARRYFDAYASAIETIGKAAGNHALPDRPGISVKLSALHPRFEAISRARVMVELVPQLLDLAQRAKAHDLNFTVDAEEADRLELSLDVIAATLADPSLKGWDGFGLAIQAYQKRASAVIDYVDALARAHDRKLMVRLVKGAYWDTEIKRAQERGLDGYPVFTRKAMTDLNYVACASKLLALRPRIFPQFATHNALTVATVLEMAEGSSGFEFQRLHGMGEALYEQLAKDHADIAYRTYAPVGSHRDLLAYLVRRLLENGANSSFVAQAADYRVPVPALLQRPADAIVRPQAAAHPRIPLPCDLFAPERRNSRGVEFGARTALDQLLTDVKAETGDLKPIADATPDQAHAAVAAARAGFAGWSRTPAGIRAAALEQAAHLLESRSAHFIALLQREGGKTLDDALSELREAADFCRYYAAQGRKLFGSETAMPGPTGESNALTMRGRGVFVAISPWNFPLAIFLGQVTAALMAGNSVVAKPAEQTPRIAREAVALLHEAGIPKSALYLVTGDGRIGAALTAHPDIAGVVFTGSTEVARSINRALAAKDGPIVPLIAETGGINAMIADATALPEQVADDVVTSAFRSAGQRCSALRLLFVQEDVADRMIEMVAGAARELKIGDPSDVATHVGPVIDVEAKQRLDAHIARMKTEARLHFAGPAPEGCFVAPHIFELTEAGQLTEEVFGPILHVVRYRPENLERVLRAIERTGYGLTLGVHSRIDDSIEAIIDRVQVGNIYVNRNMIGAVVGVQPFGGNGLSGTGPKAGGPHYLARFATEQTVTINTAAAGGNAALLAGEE

[2] = target: T2, Proline utilization A (BjPutA) (Bradyrhizobium diazoefficiens, UniProt Q89E26, R456M); test: steady-state GSALDH kinetics (NADH formation at […] nm), global fit to competitive inhibition; assay type: biochemical
T2 construct: gene putA; BjPutA R456M mutant (GSALDH activity measured)
T2 sequence (Q89E26 1-999 R456M): T1 sequence (Q89E26 1-999 C792A)

NC(CCC=O)C(=O)O = tested on: T3, NC(CCC=O)C(=O)O; test: purified protein; assay type: biochemical, Bradyrhizobium diazoefficiens; conditions: NAD+ GSAL site of the GSALDH active site
T3 construct: BjPutA R456M mutant (GSALDH activity measured)

Row | Compound | X-ray crystal structure, 2.15 Å, crystals soaked in 2 M L-proline [1] | Ki [2] | Km (NC(CCC=O)C(=O)O)
1 | O=C(O)[C@@H]1CCCN1 [L-proline] | The carboxylate group interacts with Arg791, Ser793, and the backbone amine groups of Gly946 and Ala947. | 46.3 mM | 
2 | Proline utilization A (BjPutA) (Bradyrhizobium diazoefficiens USDA 110; R456M) |  |  | 2400 µM
